Laboratory results as given in publication PMC3052630 (Bioorganic & medicinal chemistry letters, 2011).

What was measured:
p38 = p38 (Homo sapiens, UniProt Q16539); assay: p38 biochemical inhibition / selectivity; settings: for selectivity over p38: JNK3 vs p38
rat pharmacokinetics = format: in vivo
[1] = mouse plasma and brain levels; format: in vivo; settings: 10 mg/kg ip 2h

Chain of p38 (Q16539 whole entry): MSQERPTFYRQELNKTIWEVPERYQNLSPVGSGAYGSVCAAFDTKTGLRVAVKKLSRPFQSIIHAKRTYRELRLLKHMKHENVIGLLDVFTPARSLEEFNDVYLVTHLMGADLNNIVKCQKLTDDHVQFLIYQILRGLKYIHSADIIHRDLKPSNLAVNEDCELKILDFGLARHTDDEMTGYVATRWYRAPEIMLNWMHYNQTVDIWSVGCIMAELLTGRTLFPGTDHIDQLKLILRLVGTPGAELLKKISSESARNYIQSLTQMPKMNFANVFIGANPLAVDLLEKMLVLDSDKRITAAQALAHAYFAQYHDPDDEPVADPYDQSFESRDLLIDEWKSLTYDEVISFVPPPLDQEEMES

Q: What does the source list for Cn1cc(-c2ccc3cnc(Nc4ccc(-n5cnc(N6CCOCC6)n5)cc4)nc3c2-c2cnn(C)c2)cn1 [14d]?
A: IC50 (p38): > 20 µM; selectivity over p38 (p38): > 2200 fold

Q: With Cn1cc(-c2ccc3cnc(Nc4ccc(-n5cnc(N6CCOCC6)n5)cc4)nc3c2Cl)cn1 [13a] as the compound, how does the clearance (rat pharmacokinetics; rat, plasma, iv, 1 mg/kg) read?
A: Its clearance is 6 mL/min/kg.

Q: What about the “selectivity over p38” value (p38) of the same compound?
A: Its value is over 500 fold.

Q: With Cc1ncn(-c2ccc(Nc3ncc4cccc(-c5nccs5)c4n3)cc2)n1 [9g] as the compound, how does the PK properties (rat pharmacokinetics; data not shown, species not given) read?
A: Its PK properties is “poor”.

Q: Which “mouse [brain]” value [1] does the source give for Cn1cc(-c2ccc3cnc(Nc4ccc(-n5cnc(N6CCOCC6)n5)cc4)nc3c2)cn1 [compound 3] here?
A: The value was 7.2 µM.

Q: Which “mouse [plasma]” value [1] does the source give for Cc1ccc(-c2cccc3cnc(Nc4ccc(-n5cnc(N6CCOCC6)n5)cc4)nc23)cn1 [9a] here?
A: The value was 2.72 µM.
